For assay [1], the system named is Hot pepper (Variety: Pungcheon). The assay can be described thus: Serotonin sprayed on hot pepper sarcocarps; serotonin derivative content by HPLC. In kind it is in vivo. Here is the method: Hot pepper (Variety: Pungcheon) was treated with serotonin to investigate biosynthesis of serotonin derivatives.
Serotonin solution (prepared by dissolving serotonin in water to make 1 mM concentration) was sprayed on sarcocarps of hot pepper at the rate of 10,000 L/ha. 72 hours after spraying, sarcocarps were taken to investigate the content of serotonin derivatives, for which the same method in the Example 1 was used. Sarcocarps of hot pepper not treated with serotonin were used as a control.

For another assay, the system named is hot pepper THT enzyme. The assay can be described thus: In vitro enzyme reaction of purified hot pepper THT with serotonin, product by HPLC. The assay is classed as biochemical, hot pepper (Capsicum annuum). As to the method: In order to confirm whether hot pepper THT enzyme could use serotonin as an amine substrate, hot pepper THT protein, in which 6 histidines were attached on carboxy-terminal, was purified by affinity chromatography (Back et al., Plant Cell Physiol. 42, 475-481, 2001) and used for the experiment. Particularly, 1 μg of the purified hot pepper THT enzyme, 1 mM of feruloyl-CoA (Sigma-Aldrich, Korea) and 10 mM of serotonin (Sigma-Aldrich, Korea) were mixed together, followed by an enzyme reaction at 30° C. for 10 minutes. Upon completing the reaction, the reaction product was analyzed by HPLC.

In assay [2] the test system is Rice plants (Variety: Nakdong). Briefly: Soil treatment of rice with inducers; serotonin derivative content in seeds by HPLC. In kind it is in vivo. Here is the method:
Rice plants (Variety: Nakdong) having been cultivated in the rice field were treated with inducers for serotonin derivative biosynthesis and then biosynthesis of the serotonin derivatives was investigated.
Inducers for serotonin derivative biosynthesis were prepared by dissolving tyramine, tryptamine, cinnamic acid, coumaric acid, caffeic acid and ferulic acid (Sigma-Aldrich, Korea) in water respectively to make each concentration 100 μM. And then the soil where rice plants (about 40 days after heading) had been growing was treated once with each inducer for serotonin derivative biosynthesis at the rate of 300,000 L/ha, followed by further cultivation for 20 days.
As a control group, rice plant which had been cultivated under the same conditions except the treatment with inducers for serotonin derivative biosynthesis was used.
After harvesting rice, seeds of the rice were peeled to obtain brown rice. N-(hydroxycinnamoyl)-amines were extracted from 1 g of the brown rice by known method (Ishihara et al., Biosci. Biotechnol. Biochem. 64, 1025-1031, 2000), and then, HPLC was performed.
Coumaroylserotonin and feruloylserotonin included in the extract of seeds of rice, treated with inducers for serotonin derivative biosynthesis, were quantified by HPLC using a standard substance synthesized by a well-known method (Villegas & Brodelius, Physiol. Plant. 78, 414-420, 1990).

Assay [3] deals with Hot pepper (Variety: Pungcheon). Briefly: Soil treatment of hot pepper with inducers; serotonin derivative content in sarcocarps by HPLC. In kind it is in vivo. Here is the method:
Hot pepper (Variety: Pungcheon) was treated with inducers for serotonin derivative biosynthesis, followed by an examination of biosynthesis of serotonin derivatives.
Particularly, inducers for serotonin derivative biosynthesis were prepared by dissolving tyramine, tryptamine, cinnamic acid, coumaric acid, caffeic acid and ferulic acid in water respectively to make each concentration 100 μM. And then the soil where rice plants (about 40 days after heading) had been growing was treated once with each inducer for serotonin derivative biosynthesis at the rate of 300,000 L/ha, followed by further cultivation for 20 days.
The ripe sarcocarps of hot peppers were obtained to investigate the content of serotonin derivatives by the same method as used in the above Example <1-1>. Control group hot pepper was cultivated under the same condition as the experimental group hot pepper except the treatment with inducers for serotonin derivative biosynthesis.

The subject of assay [4] is transgenic rice plants over-expressing THT. The assay can be described thus: Transgenic rice grown in medium with tyramine or coumaric acid; content in leaves and stems. The assay is classed as in vivo. The conditions noted are these: for Coumaroyl serotonin / Feruloyl serotonin / Total content of serotonin derivatives: medium with 50 μM tyramine, 2 weeks.
The subject of assay [5] is transgenic rice plants (T14) over-expressing THT. The assay can be described thus: Soil treatment of transgenic rice T14 with inducers; serotonin derivative content in seeds. In kind it is in vivo. Here is the method: Among T2 generations of transgenic rice plants, T14 was transplanted in the soil, to which inducers for serotonin derivative biosynthesis were treated. After cultivation, the contents of serotonin derivatives in seeds of the transgenic rice plants were investigated.
As inducers for serotonin derivative biosynthesis, tyramine, tryptamine, cinnamic acid, coumaric acid, caffeic acid and ferulic acid were used. Precisely, the inducers for serotonin derivative biosynthesis were dissolved in water, making each concentration 100 μM. Then, the solutions were added at the rate of 300,000 L/ha, to the soil where rice plants (about 40 days after heading) were growing. The plants were cultivated for 20 more days.
The seeds of the plants cultivated above were collected, and the content of serotonin derivatives in them was investigated with the same method as used in the Example <1-1>, which was compared with that in seeds of wild type control rice plants.

Assay [6] relates to wild type control rice plants. Briefly: Wild-type control rice grown in medium with tyramine; content in leaves and stems. The assay is classed as in vivo. The conditions noted are these: Wild-type control (W); medium with 50 μM tyramine, 2 weeks. As to the method: (§1) It was investigated whether serotonin derivatives was biosynthesized in transgenic rice plants over-expressing THT when cultivated in a medium supplemented with serotonin inducers, tyramine or coumaric acid. T2 generations of the transgenic rice seeds were sown on MS medium (Duchefa Biochemie, Netherlands) supplemented with 50 μM of tyramine or coumaric acid, substrates of hot pepper THT enzyme, which were then further cultured in a sterilized condition with 12 hour light and 12 hour dark cycle. 2 weeks later, hydroxycinnamoyl amines were extracted from leaves of T2 generations of transgenic rice plants and wild type control rice plants, respectively, according to the same procedure as used in the above Example <1-1>, then, HPLC was performed for analysis.

The test system of a further assay is transgenic control rice. Briefly: Transgenic control rice (pGA1611 vector without THT gene) grown in medium with tyramine; content in leaves and stems. In kind it is in vivo. The conditions noted are these: Transgenic control (TC); medium with 50 μM tyramine, 2 weeks. As to the method:
In the meantime, transgenic control rice was prepared by transfecting rice plant with pGA1611 vector without hot pepper THT gene, and other preparation procedures for a control were the same as for an experimental group.
as §1

Another assay relates to potato THT. The conditions noted are these: coumaroyl-CoA used as a substrate instead of feruloyl-CoA; cited from earlier work.
Assay [7] relates to recombinant hot pepper THT. The conditions noted are these: amine substrates; cited from earlier work.
Setting [8] is: sarcocarps of hot pepper, 1 mM serotonin sprayed, 10,000 L/ha, 72 hours.
Setting [9] is: inducer 100 μM to soil, 300,000 L/ha, 20 days.
The mark [10] stands for this setting: Mean of transgenic rice lines T9-T17.
Where [11] appears, read: seeds of transgenic rice T14, inducer 100 μM to soil, 300,000 L/ha, 20 days.

Consider two molecules from US20040268437A1, “Method for biosynthesizing the serotonin derivatives in plants” (CHONNAM NATIONAL UNIVERSITY, priority 2003, published 2004).

Entries after “also recorded” stand apart in the source; their conditions may differ.

On to `NCCc1c[nH]c2ccc(O)cc12` [Serotonin, serotonin], for which the Serotonin derivatives detected entry in [1] (sarcocarps of hot pepper treated with serotonin, in words) was “a large amount; also recorded: detected a lot”. Moreover, in assay [1] (setting [8]), the “Content of serotonin derivatives: Coumaroyl Serotonin” value worked out at 1538 ng/1 g sarcocarps, the “Content of serotonin derivatives: Feruloyl serotonin” value is 1028 ng/1 g sarcocarps and the “Content of serotonin derivatives: Total content” value was determined as 2566 ng/1 g sarcocarps. The “Serotonin used as amine substrate, product feruloylserotonin” value with hot pepper THT enzyme (1 μg THT, 1 mM feruloyl-CoA, 10 mM serotonin, 30° C., 10 minutes) is on record as “uses serotonin as an amine substrate; also recorded: biosynthesis of feruloylserotonin was confirmed”. Also, the “Serotonin used as amine substrate, product coumaroylserotonin” value in the assay on hot pepper THT enzyme (coumaroyl-CoA and serotonin as substrates (not shown)) is “synthesized coumaroylserotonin; also recorded: biosynthesis of coumaroylserotonin by hot pepper THT enzyme was also confirmed”.

`NCCc1ccc(O)cc1` [Tyramine, tyramine]: the “Rank of inducers by serotonin derivatives produced” value in assay [2] (in words) is “second most”; in assay [3] (in words), “third most”. The “Content of serotonin derivatives: Coumaroyl Serotonin” value came out at 19 ng/1 g seed in assay [2] (setting [9]) and 150 ng/1 g sarcocarps in assay [3] (setting [9]). In addition, the entries for the “Content of serotonin derivatives: Feruloyl serotonin” value in [2] (setting [9]) and in [3] (setting [9]) were 54 ng/1 g seed and 210 ng/1 g sarcocarps, respectively. For the same molecule, the “Content of serotonin derivatives: Total content” value in [2] (setting [9]) turned out to be 73 ng/1 g seed; in assay [3] (setting [9]), 360 ng/1 g sarcocarps. The Coumaroyl serotonin in [4] (setting [10]) was 78 μg/g leaves and stems; in assay [4] (Transgenic rice T9), 24 μg/g leaves and stems; in assay [4] (Transgenic rice T10), 86 μg/g leaves and stems; in assay [4] (Transgenic rice T13) it was 224 μg/g leaves and stems; in assay [4] (Transgenic rice T14), 46 μg/g leaves and stems; in assay [4] (Transgenic rice T16), 50 μg/g leaves and stems. Moreover, the Coumaroyl serotonin in assay [4] (Transgenic rice T17) was 36 μg/g leaves and stems; in assay [6], 0 μg/g leaves and stems; with transgenic control rice, 0 μg/g leaves and stems. The Feruloyl serotonin is 96 μg/g leaves and stems in assay [4] (setting [10]); 24 μg/g leaves and stems in [4] (Transgenic rice T9); 114 μg/g leaves and stems in [4] (Transgenic rice T10); 200 μg/g leaves and stems in assay [4] (Transgenic rice T13); 78 μg/g leaves and stems in assay [4] (Transgenic rice T14); 70 μg/g leaves and stems in [4] (Transgenic rice T16). The Feruloyl serotonin in assay [4] (Transgenic rice T17) is 92 μg/g leaves and stems; in assay [6], 1 μg/g leaves and stems; with transgenic control rice, 1 μg/g leaves and stems. Also, the “Total content of serotonin derivatives” value in assay [4] (setting [10]) was 174 μg/g leaves and stems; in assay [4] (Transgenic rice T9), 48 μg/g leaves and stems; in [4] (Transgenic rice T10), 200 μg/g leaves and stems; in assay [4] (Transgenic rice T13), 424 μg/g leaves and stems; in assay [4] (Transgenic rice T14), 124 μg/g leaves and stems; in [4] (Transgenic rice T16), 120 μg/g leaves and stems. Moreover, the “Total content of serotonin derivatives” value is 128 μg/g leaves and stems in assay [4] (Transgenic rice T17); 1 μg/g leaves and stems in [6]; 1 μg/g leaves and stems in the assay on transgenic control rice. Also, the “Coumaroyltyramine and feruloyltyramine in the extract” value in assay [4] (transgenic rice in medium with 50 μM tyramine or coumaric acid, HPLC) is “neither coumaroyltyramine nor feruloyltyramine”. In addition, the “Content of serotonin derivative: Coumaroyl serotonin” value in [5] (setting [11]) came out at 314 ng/g seeds. Also, the “Content of serotonin derivative: Feruloyl serotonin” value in [5] (setting [11]) amounted to 684 ng/g seeds. Besides, in assay [5] (setting [11]), the “Content of serotonin derivative: Total content” value is 998 ng/g seeds. The “Rank of inducers by content of serotonin derivatives” value in assay [5] (seeds of transgenic rice plants, in words) was “the highest”. For the same molecule, the “Increase of substrate specificity to tyramine” value in the assay on potato THT is “more than 10 times”. Besides, in assay [7], the “Maximum reaction velocity (Vmax) relative to octopamine” value is given as 1.5 fold.
